Values of other authors as cited in patent US11039615B2, “Methods of processing chlorhexidine-containing polymerizable compositions and antimicrobial articles formed thereby” (entrotech life sciences, inc., priority 2014, dated 2021).

Conditions: documented in Ranganathan 1996

temperature at which chlorhexidine decomposes to PCA: ≥ 40 °C
SMILES: [H]/N=C(\N/C(=N/[H])NCCCCCCNC(=N)NC(=N)Nc1ccc(Cl)cc1)Nc1ccc(Cl)cc1 [chlorhexidine]
